Source: patent publication US20220409577A1, “INTRATUMORAL ADMINISTRATION OF ASCORBIC ACID AND QUINONE COMPOUNDS FOR TUMOR TREATMENT” (IC-MedTech Corp., priority 2021, published 2022)

Test system: Glioblastoma cells (GS9L)
Assay: Antitumor activity in a glioblastoma xenograft mouse model (GS9L), intracranial treatment
Type: in vivo, Balb/c nude mice
Conditions: glioblastoma-bearing mice; single intracranial injection on Day 4; TMZ 4 mg/kg; L-ascorbic acid 1.4 or 7 mg/kg + menadione 14 or 70 μg/kg, then oral L-ascorbic acid 15 g/L and menadione 150 mg/L in water daily
Experimental: Six-week-old male Balb/c nude mice were maintained in specific pathogen-free conditions. Glioblastoma cells (GS9L) were cultured in DMEM supplemented with 10% FBS, penicillin (100 U/mL), and streptomycin (100 mg/L) at 37° C. in a humidified atmosphere containing 5% CO2. After deep anesthesia, the mice were positioned in a stereotactic frame. A small craniectomy was performed at 2-3 mm from the midline and 1 mm anterior to the coronal suture. The glioblastoma cells (5×10^5 cells in 5 μL) were stereotactically injected into the brain parenchyma at a depth of 3 mm on Day 1 using an automated injector.
Vitamin C (L-ascorbic acid) was dissolved in PBS at 10 mM (pH 7.4). Menadione and temozolomide (TMZ) were each dissolved in DMSO at 10 mM as a stock solution and diluted in PBS when in use. The final concentration of DMSO was below 1%. […] The glioblastoma-bearing mice were analyzed on Days 4, 7, 14, 21, and 28 (i.e., 0, 3, 10, 17, and 24 days after drug administration) by MRI to determine the size of the glioblastoma. […]

With Cn1nnc2c(C(N)=O)ncn2c1=O [TMZ, temozolomide] the “side-effects (e.g., fever, tetraplegia, or convulsions)” value was “experienced side-effects (e.g., fever, tetraplegia, or convulsions)”.
